This is an account of results in paper PMC6240093, “Identification of Two Mannosyltransferases Contributing to Biosynthesis of the Fungal-type Galactomannan α-Core-Mannan Structure in Aspergillus fumigatus” (Scientific Reports, 2018).

This assay concerns the target T1, CmsA (Aspergillus fumigatus, UniProt B0Y2F5).
T1 construct: gene AFUB_051270; catalytic domain residues 27-397 (N-terminal TM removed)
As to the kind of experiment: HPLC (UV300) of product with p-nitrophenyl alpha-D-mannopyranoside as acceptor. The class given is biochemical. The following applies: donor 1.5 mM; p-nitrophenyl alpha-D-mannopyranoside 1.5 mM; 1.5 mM MnCl2; pH 7.0; 37 °C.

Structures are written as SMILES.

T1 sequence (B0Y2F5 entry or part of it): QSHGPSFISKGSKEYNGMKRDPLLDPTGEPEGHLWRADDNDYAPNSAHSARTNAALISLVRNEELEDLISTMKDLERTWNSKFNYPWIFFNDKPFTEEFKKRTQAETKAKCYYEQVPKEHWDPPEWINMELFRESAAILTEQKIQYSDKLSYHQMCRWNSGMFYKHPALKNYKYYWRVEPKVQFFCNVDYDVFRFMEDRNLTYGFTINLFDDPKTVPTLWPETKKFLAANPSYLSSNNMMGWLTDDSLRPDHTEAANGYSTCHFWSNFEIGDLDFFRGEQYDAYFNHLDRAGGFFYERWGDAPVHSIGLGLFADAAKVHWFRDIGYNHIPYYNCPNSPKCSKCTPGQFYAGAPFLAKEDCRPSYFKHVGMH

As for `Nc1nc2c(ncn2[C@@H]2O[C@H](COP(=O)(O)OP(=O)(O)O[C@H]3O[C@H](CO)[C@@H](O)[C@H](O)[C@@H]3O)[C@@H](O)[C@H]2O)c(=O)[nH]1` [GDP-Man], the “HPLC (UV300) of product with p-nitrophenyl alpha-D-mannopyranoside as acceptor” value is given as “CmsA has GDP-Man: α-mannoside α-1,2-mannosyltransferase activity in vitro”.
